pIC50: −log10 of the molar value. Where two headings read alike, the source gives them in different places.
What was measured:
[1] = system: SOX2 (ectoderm and pluripotency marker) in RUES2-GLR cells; assay: DevTox GLR-Endo assay: increase in percent SOX2-positive cells (AEID 3095, Sox2_up); conditions: for MAX_MEAN: tcpl plot AEID3095, maximum mean response; for MAX_MED: tcpl plot AEID3095, maximum median response; for AC50 / Emax: Homo sapiens; for AC50: read-out: ga (winning model); for Emax: read-out: tp (winning model);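 as to all read-outs here: cells exposed to test chemicals for 48 h in total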
[2] = system: BRA (mesoderm marker) in RUES2-GLR cells; assay: DevTox GLR-Endo assay: increase in percent BRA-positive cells (AEID 3096, Bra_up); format: cell-based, human
Procedure: (§1) The total test chemical incubation period was 48 h.
(§2) (Supplementary Materials).

H9 embryonic stem cells = conditions: concentration at cell viability cutoff; cited from earlier work
[3] = system: SOX17 (endoderm marker) in RUES2-GLR cells; assay: DevTox GLR-Endo assay: increase in percent SOX17-positive cells (AEID 3093, Sox17_up); format: cell-based, human; conditions: for Emax: Homo sapiens; for HIT−CALL: tcpl plot AEID3093, COFF 20.3
Procedure: as §1, §2

[4] = cited from earlier work; for Development Toxicant Classification: Table S2; for Classification: developmental toxicant classification (Teratogen / Non-Teratogen) of reference and training chemicals, ref DOI per chemical: 10.1093/toxsci/kft239, 10.1093/toxsci/kfaa014, 10.1177/026119290203000204, 10.1038/s41598-020-59542-x; for DT Class.: developmental toxicant classification
[5] = system: o/c ratio in H9 embryonic stem cells; conditions: Teratogen Index, o/c ratio; cited from earlier work
[6] = system: SOX17 in H9 human ESC line; conditions: SOX17 half-maximal inhibition concentration; read-out: hPST IC50; cited from earlier work
H9 human ESC line = conditions: cited from earlier work
[7] = system: SOX17 (endoderm marker) in RUES2-GLR cells; assay: DevTox GLR-Endo assay: decrease in percent SOX17-positive cells (AEID 3094, Sox17_dn); conditions: for Hit Call: Table S2, SOX17-positive cells, cutoff 3*bmad; for DevTox ACC: Table S2, percent SOX17-positive cells; for DevTox-GLR Endo ACC: activity concentration at cutoff, SOX17-positive cells; for HIT−CALL: tcpl plot AEID3094, COFF 20.3
Outline: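 Readouts are loss of SOX17-positive fraction and reduced cell number in endoderm-differentiating RUES2-GLR cells after 48 h of chemical exposure. Controls: undifferentiated and differentiated cells, 0.2% DMSO, and 1 µM SB431542; at least four biological replicates.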

in vitro = conditions: human
RUES2-GLR cells [8] = assay: DevTox GLR-Endo assay: decrease in total cell count, cytotoxicity (AEID 3098, CellCount_dn); conditions: for Emax: Homo sapiens, read-out: Cell Count % Max Inhibition; for Cell Count ACC / DevTox-GLR Endo CC: human, 48 h
RUES2-GLR cells [9] = assay: DMSO tolerance test under directed endoderm differentiation (SOX17-positive cells, cell count); format: cell-based, human; conditions: DMSO 0.2%
Procedure: To identify biomarker-positive populations during directed endoderm differentiation, RUES2-GLR cells were evaluated by high-content confocal imaging. […] A qualitative loss of SOX2 expression and increased SOX17 expression were evident, indicating loss in pluripotency and commitment to definitive endoderm, respectively (Figure 2A).

H9 ESCs = conditions: global gene expression at 6, 96 and 192 h; cited from earlier work
[10] = tcpl plot AEID3093, maximum mean response, read-out: MAX_MEAN
[11] = tcpl plot AEID3093, maximum median response, read-out: MAX_MED
[12] = chemicals common with quickPredict
[13] = cytotoxicity half-maximal concentration
[14] = Homo sapiens, 48 h, read-out: DevTox-GLR Endo AC50 (µM), SOX17 half-maximal activity concentration, 48 h exposure
[15] = Homo sapiens, read-out: DevTox % Max Inhibition
[16] = Homo sapiens, read-out: MAX_MEAN
[17] = Homo sapiens, read-out: MAX_MED
[18] = Homo sapiens, read-out: ga (winning model), tcpl plot AEID3094, gain parameter of winning curve fit (log concentration, µM axis), hit calls only (converted)
[19] = Homo sapiens, read-out: tp (winning model)

Row | Structure (SMILES) | MAX_MEAN [1] [Percent Activity] | MAX_MED [1] [Percent Activity] | Emax [3, 10] [%] | Emax [3, 11] [%] | HIT−CALL [3] | Development Toxicant Classification [4] | Classification [4] | DT Class. ([4]; chemicals common with hPST) | DT Class. [4, 12] | quickPredict TI [5] [µM] | pIC50 [6] | hPST TC50 (H9 human ESC line; [13]) [µM] | hPST TC50 (H9 human ESC line; hPST cytotoxicity) [µM] | AC50 [7, 14] [µM] | Emax [7, 15] [%] | Emax [7, 16] [%] | Emax [7, 17] [%] | AC50 [7, 18] [µM] | Emax [7, 19] [%] | Hit Call [7] | also measured
1 | CCCC(CCC)C(=O)O [Valproic Acid] | 1.25 | 0.475 | 7.73 | 5.59 | 0 | Positive | Teratogen | Pos | Pos | 155 | 5.59 | 3.3 | 3.3 | 124 | 22.3 | 22 | 22.3 | 123 | 29.3 | Positive | HIT−CALL ([2]; tcpl plot AEID3096, COFF 0.774): 0; MAX_MEAN ([2]; tcpl plot AEID3096, maximum mean response): 0.771 Percent Activity; MAX_MED ([2]; tcpl plot AEID3096, maximum median response): 0.815 Percent Activity; quickPredict CV (H9 embryonic stem cells): 271 µM; SOX17 ACC relative to cytotoxic concentration (in words) [7]: below cytotoxic concentrations; DevTox ACC ([7]; 48 h exposure): 177.332 µM; DevTox-GLR Endo ACC ([7]; 48 h exposure): 177.33 µM; HIT−CALL [7]: 1; CC50 at 48 h (in vitro): > 200 µM; Emax (RUES2-GLR cells [8]): 18.1%; Cell Count ACC (RUES2-GLR cells [8]): >200 µM
2 | C[S+](C)[O-] [DMSO, dimethyl sulfoxide] | – | – | – | – | – | – | – | – | – | – | – | – | – | – | – | – | – | – | – | – | effect on cell counts (in words) (RUES2-GLR cells [9]): without affecting cell counts; reduction of the SOX17 population (RUES2-GLR cells [9]): 19.5%
3 | O=c1[nH]cc(F)c(=O)[nH]1 [5-Fluorouracil] | 6.64 | 5.57 | 3.38 | 4.48 | 0 | Positive | Teratogen | Pos | Pos | 2.02 | 6.22 | 0.7 | 0.7 | 8.48 | 102 | 102 | 102 | 8.49 | 102 | Positive | AC50 [1]: 18.6 µM; Emax [1]: 5.33%; quickPredict CV (H9 embryonic stem cells): 1.45 µM; DevTox ACC ([7]; 48 h exposure): 7.071 µM; DevTox-GLR Endo ACC ([7]; 48 h exposure): 7.07 µM; HIT−CALL [7]: 1; CC50 at 48 h (in vitro): 5.72 µM; effect on cell count (in words) (RUES2-GLR cells [8]): significant decreases in cell count; Emax (RUES2-GLR cells [8]): 91%; Cell Count ACC (RUES2-GLR cells [8]): 4.179 µM; DevTox-GLR Endo CC (RUES2-GLR cells [8]): 20.34 µM
4 | CC1=C(/C=C/C(C)=C/C=C/C(C)=C/C(=O)O)C(C)(C)CCC1 | 50.7 | 53.1 | 4.3 | 3.82 | 0 | Positive | Teratogen | Pos | Pos | 0.003 | 7.15 | 33 | 33 | 0.1 | 101 | 101 | 101 | 0.101 | 99.2 | Positive | AC50 [1]: 87.1 µM; Emax [1]: 71.4%; increase of BRA protein expression (in words) ([2]; AEID 3096, 48 h exposure): lack of significant BRA perturbation; Developmental Toxicant Classification ([4]; reference chemicals): Positive; toxicological tipping point concentration (H9 ESCs): 17 ± 11 nM; pIC50 ([7]; Homo sapiens, 48 h): 6.80; DevTox ACC ([7]; 48 h exposure): 0.04166 µM; DevTox-GLR Endo ACC ([7]; 48 h exposure): 0.04 µM; % Max Inhibition ([7]; maximum inhibition of SOX17-positive cells, reference chemical testing, 48 h exposure): 93%; HIT−CALL [7]: 1; CC50 at 48 h (in vitro; RUES2-GLR cells under directed endoderm differentiation): 5.53 µM; Emax (RUES2-GLR cells [8]): 97.6%; Cell Count ACC (RUES2-GLR cells [8]): 3.839 µM; DevTox-GLR Endo CC (RUES2-GLR cells [8]): 3.84 µM
